Read-outs that look alike come from different tables or passages of the source.
Assays:
PfCRT^3D7 [1] = target: T1, PfCRT^3D7 (Plasmodium falciparum, UniProt Q8IBZ9); test: cell-based; type: cell-based; details: for Uptake of [3H]CQ (% PfCRT3D7 control), trans-stimulation / PfCRT-mediated [3H]CQ transport, trans-stimulation (% PfCRT3D7 control): PfCRT3D7 oocytes; for Uptake of [3H]CQ (% PfCRT3D7 control), trans-stimulation: total [3H]CQ transport, normalised to the oocyte type control; for PfCRT-mediated [3H]CQ transport, trans-stimulation (% PfCRT3D7 control): normalised to oocyte type control
T1 sequence (Q8IBZ9 59-398): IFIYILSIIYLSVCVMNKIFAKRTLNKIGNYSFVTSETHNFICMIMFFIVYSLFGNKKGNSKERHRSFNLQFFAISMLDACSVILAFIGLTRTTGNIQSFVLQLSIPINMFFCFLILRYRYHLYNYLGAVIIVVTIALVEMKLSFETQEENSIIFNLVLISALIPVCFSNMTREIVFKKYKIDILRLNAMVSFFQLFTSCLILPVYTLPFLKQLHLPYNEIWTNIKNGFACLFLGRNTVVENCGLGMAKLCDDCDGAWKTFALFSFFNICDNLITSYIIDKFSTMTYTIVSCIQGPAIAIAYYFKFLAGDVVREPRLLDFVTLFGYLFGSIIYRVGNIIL
Outline: (§1)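 Oocytes (ten per treatment, ≥4 independent frogs/days) were preloaded by injecting VF-6 in 25 nL ND96 at pH 5.0, 5.5, 6.0 or 7.0, or Na^+-free choline buffer, then uptake run 1.5 h, 27.5 °C, ND96 pH 5.5 by default. Internal concentrations assumed ~400 nL oocyte volume.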

PfNT1 = target: T2, PfNT1 (Plasmodium falciparum, UniProt Q8IDM6); test: cell-based; type: cell-based; details: PfNT1 oocytes, total [3H]CQ transport, normalised to the oocyte type control
T2 construct: expressed in transfected cells; host or cells: Xenopus laevis oocytes (stage V-VI), cRNA-injected
T2 sequence (Q8IDM6 whole entry): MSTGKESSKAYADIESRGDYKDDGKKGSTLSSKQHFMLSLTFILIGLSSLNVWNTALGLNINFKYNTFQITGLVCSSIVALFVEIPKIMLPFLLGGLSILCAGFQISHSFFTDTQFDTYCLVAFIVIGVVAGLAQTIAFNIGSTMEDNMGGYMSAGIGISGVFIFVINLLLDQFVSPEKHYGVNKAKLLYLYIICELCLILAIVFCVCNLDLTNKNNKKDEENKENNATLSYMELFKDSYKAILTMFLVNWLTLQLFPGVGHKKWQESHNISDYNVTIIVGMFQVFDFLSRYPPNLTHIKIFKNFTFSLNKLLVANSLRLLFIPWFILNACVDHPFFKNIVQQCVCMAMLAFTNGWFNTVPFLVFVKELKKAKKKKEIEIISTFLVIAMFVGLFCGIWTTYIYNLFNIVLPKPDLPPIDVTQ
Outline: as §1

PfCRT^Dd2 [2] = target: T3, PfCRT^Dd2 (Plasmodium falciparum, UniProt Q9N623, A220S/I356T/K76T/M74I/N326S/N75E/Q271E/R371I); test: cell-based; type: cell-based; details: for Uptake of [3H]CQ (% PfCRTDd2 control), trans-stimulation / PfCRT-mediated [3H]CQ transport, trans-stimulation (% PfCRTDd2 control): PfCRTDd2 oocytes; for Uptake of [3H]CQ (% PfCRTDd2 control), trans-stimulation: total [3H]CQ transport, normalised to the oocyte type control; for PfCRT-mediated [3H]CQ transport, trans-stimulation (% PfCRTDd2 control): normalised to oocyte type control; for [3H]CQ transport (% PfCRTDd2 control), trans-stimulation, PfCRTDd2: PfCRT-mediated component (background subtracted), mean ± SEM, SEM
T3 sequence (Q9N623 whole entry A220S/I356T/K76T/M74I/N326S/N75E/Q271E/R371I): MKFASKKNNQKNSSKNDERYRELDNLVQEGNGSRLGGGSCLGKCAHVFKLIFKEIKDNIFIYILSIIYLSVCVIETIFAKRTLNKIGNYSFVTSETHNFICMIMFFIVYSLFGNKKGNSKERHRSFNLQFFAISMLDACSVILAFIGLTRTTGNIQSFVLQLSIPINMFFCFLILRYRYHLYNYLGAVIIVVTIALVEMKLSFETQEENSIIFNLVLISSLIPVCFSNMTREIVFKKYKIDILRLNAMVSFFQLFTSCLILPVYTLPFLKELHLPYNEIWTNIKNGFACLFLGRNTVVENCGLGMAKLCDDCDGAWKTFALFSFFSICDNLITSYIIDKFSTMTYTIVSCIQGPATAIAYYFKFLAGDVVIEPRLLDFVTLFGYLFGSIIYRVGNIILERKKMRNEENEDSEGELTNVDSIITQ
Outline: as §1

PfCRT^Ecu1110 [3] = target: T4, PfCRT^Ecu1110 (Plasmodium falciparum, UniProt Q9N623, A220S/I356L/K76T/N326D); test: cell-based; type: cell-based; details: for Uptake of [3H]CQ (% PfCRTEcu1110 control), trans-stimulation / PfCRT-mediated [3H]CQ transport, trans-stimulation (% PfCRTEcu1110 control): PfCRTEcu1110 oocytes; for Uptake of [3H]CQ (% PfCRTEcu1110 control), trans-stimulation: total [3H]CQ transport, normalised to the oocyte type control; for PfCRT-mediated [3H]CQ transport, trans-stimulation (% PfCRTEcu1110 control): normalised to oocyte type control; for [3H]CQ transport (% PfCRTDd2 control), trans-stimulation, PfCRTEcu1110: PfCRT-mediated component (background subtracted), sheet title says normalised to PfCRTDd2 control, mean ± SEM, SEM
T4 sequence (Q9N623 whole entry A220S/I356L/K76T/N326D): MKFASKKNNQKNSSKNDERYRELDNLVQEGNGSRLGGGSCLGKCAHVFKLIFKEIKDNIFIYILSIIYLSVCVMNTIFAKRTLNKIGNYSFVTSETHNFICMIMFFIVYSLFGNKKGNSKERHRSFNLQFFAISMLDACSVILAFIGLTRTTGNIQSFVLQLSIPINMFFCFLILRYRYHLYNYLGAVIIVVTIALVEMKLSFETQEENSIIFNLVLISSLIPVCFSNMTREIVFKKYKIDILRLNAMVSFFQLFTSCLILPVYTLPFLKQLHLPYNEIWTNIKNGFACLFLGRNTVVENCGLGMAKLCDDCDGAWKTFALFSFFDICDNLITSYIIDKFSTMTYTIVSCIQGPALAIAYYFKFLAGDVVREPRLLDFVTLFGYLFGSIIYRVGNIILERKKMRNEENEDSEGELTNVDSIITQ
Outline: as §1

non-expressing oocytes [4] = type: cell-based, Xenopus laevis; details: non-expressing oocytes, total [3H]CQ transport, normalised to the oocyte type control
Outline: as §1

PfCRT^3D7 [5] = target: T1, PfCRT^3D7; test: cell-based; type: cell-based; details: PfCRT3D7 oocytes, total [3H]CQ transport, normalised to the oocyte type control
Outline: (§2)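 Each treatment used ten oocytes, repeated in at least four experiments on different days with oocytes from different frogs. Conditions: ND96 pH 5.5, 27.5 °C, 1.5 h; read-out by scintillation counting.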

PfCRT^Dd2 [6] = target: T3, PfCRT^Dd2; test: [3H]CQ uptake into Xenopus oocytes, cis-inhibition by unlabelled solute; type: cell-based; details: PfCRTDd2 oocytes, background [3H]CQ accumulation subtracted, normalised to oocyte type control
Outline: as §2

PfCRT^Ecu1110 [7] = target: T4, PfCRT^Ecu1110; test: as above; type: cell-based; details: for Uptake of [3H]CQ (% PfCRTEcu1110 control), cis-inhibition / PfCRT-mediated [3H]CQ transport, cis-inhibition (% PfCRTEcu1110 control): PfCRTEcu1110 oocytes; for Uptake of [3H]CQ (% PfCRTEcu1110 control), cis-inhibition: total [3H]CQ transport, normalised to the oocyte type control; for PfCRT-mediated [3H]CQ transport, cis-inhibition (% PfCRTEcu1110 control): background [3H]CQ accumulation subtracted, normalised to oocyte type control; for [3H]CQ transport (% PfCRTEcu1110 control), cis-inhibition, PfCRTEcu1110: PfCRT-mediated component (background subtracted), sheet title says normalised to PfCRTDd2 control, mean ± SEM, SEM
Outline: as §2

non-expressing oocytes [8] = test: cells; type: cell-based, Xenopus laevis; details: non-expressing oocytes, total [3H]CQ transport, normalised to the oocyte type control
Outline: as §2

[9] = [test solute]i = 45 mM (30 mM for some solutes due to solubility)
[10] = [test solute]i = 5 mM (intracellular)
[11] = [test solute]i = 45 mM (intracellular; 30 mM for some solutes due to solubility)
[12] = [test solute]i = 5 mM (injected)

## PHFD [PD-4]
PfCRT^3D7 [1]; [test solute]i = 5 mM
  Uptake of [3H]CQ (% PfCRT3D7 control), trans-stimulation: 99 ± 3.6 % PfCRT3D7 control
PfCRT^3D7 [1]; [9]
  Uptake of [3H]CQ (% PfCRT3D7 control), trans-stimulation: 100 ± 2.1 % PfCRT3D7 control
PfCRT^3D7 [1]; SEM
  [3H]CQ transport (% PfCRT3D7 control), trans-stimulation, PfCRT3D7: 0.1 ± 0.02
PfCRT^3D7 [1]; [10]
  PfCRT-mediated [3H]CQ transport, trans-stimulation (% PfCRT3D7 control): 97 ± 2.9 % PfCRT3D7 control
PfCRT^3D7 [1]; [11]
  PfCRT-mediated [3H]CQ transport, trans-stimulation (% PfCRT3D7 control): 98 ± 4.2 % PfCRT3D7 control
PfNT1; [test solute]i = 5 mM
  Uptake of [3H]CQ (% PfNT1 control), trans-stimulation: 100 ± 3.5 % PfNT1 control
PfNT1; [9]
  Uptake of [3H]CQ (% PfNT1 control), trans-stimulation: 98 ± 2.2 % PfNT1 control
PfCRT^Dd2 [2]; [test solute]i = 5 mM
  Uptake of [3H]CQ (% PfCRTDd2 control), trans-stimulation: 102 ± 2.4 % PfCRTDd2 control
PfCRT^Dd2 [2]; [9]
  Uptake of [3H]CQ (% PfCRTDd2 control), trans-stimulation: 99 ± 2.9 % PfCRTDd2 control
  [3H]CQ transport (% PfCRTDd2 control), trans-stimulation, PfCRTDd2: 97 ± 2.8 % PfCRTDd2 control
PfCRT^Dd2 [2]; [10]
  PfCRT-mediated [3H]CQ transport, trans-stimulation (% PfCRTDd2 control): 100 ± 4.2 % PfCRTDd2 control
PfCRT^Dd2 [2]; [11]
  PfCRT-mediated [3H]CQ transport, trans-stimulation (% PfCRTDd2 control): 97 ± 2.8 % PfCRTDd2 control
PfCRT^Dd2 [2]; [12]
  [3H]CQ transport (% PfCRTDd2 control), trans-stimulation, PfCRTDd2: 100 ± 4.2 % PfCRTDd2 control
PfCRT^Ecu1110 [3]; [test solute]i = 5 mM
  Uptake of [3H]CQ (% PfCRTEcu1110 control), trans-stimulation: 98 ± 1.4 % PfCRTEcu1110 control
PfCRT^Ecu1110 [3]; [9]
  Uptake of [3H]CQ (% PfCRTEcu1110 control), trans-stimulation: 100 ± 3.5 % PfCRTEcu1110 control
  [3H]CQ transport (% PfCRTDd2 control), trans-stimulation, PfCRTEcu1110: 30 ± 1.6 % PfCRTEcu1110 control
PfCRT^Ecu1110 [3]; [10]
  PfCRT-mediated [3H]CQ transport, trans-stimulation (% PfCRTEcu1110 control): 96 ± 3.2 % PfCRTEcu1110 control
PfCRT^Ecu1110 [3]; [11]
  PfCRT-mediated [3H]CQ transport, trans-stimulation (% PfCRTEcu1110 control): 98 ± 4.3 % PfCRTEcu1110 control
PfCRT^Ecu1110 [3]; [12]
  [3H]CQ transport (% PfCRTDd2 control), trans-stimulation, PfCRTEcu1110: 29 ± 1.4 % PfCRTEcu1110 control
non-expressing oocytes [4]; [test solute]i = 5 mM
  Uptake of [3H]CQ (% non-expressing oocyte control), trans-stimulation: 98 ± 2.0 % non-expressing oocyte control
non-expressing oocytes [4]; [9]
  Uptake of [3H]CQ (% non-expressing oocyte control), trans-stimulation: 99 ± 3.7 % non-expressing oocyte control
PfCRT^3D7 [5]; [test solute] = 0.5 mM
  Uptake of [3H]CQ (% PfCRT3D7 control), cis-inhibition: 98 ± 5.6 % PfCRT3D7 control
PfCRT^3D7 [5]; [test solute] = 1 mM
  Uptake of [3H]CQ (% PfCRT3D7 control), cis-inhibition: 100 ± 5.5 % PfCRT3D7 control
PfCRT^3D7 [5]; [test solute] = 2 mM
  Uptake of [3H]CQ (% PfCRT3D7 control), cis-inhibition: 99 ± 3.5 % PfCRT3D7 control
PfCRT^Dd2 [6]; [test solute] = 0.5 mM
  PfCRT-mediated [3H]CQ transport, cis-inhibition (% PfCRTDd2 control): 56 ± 1.1 % PfCRTDd2 control
PfCRT^Dd2 [6]; [test solute] = 1 mM
  PfCRT-mediated [3H]CQ transport, cis-inhibition (% PfCRTDd2 control): 42 ± 0.5 % PfCRTDd2 control
PfCRT^Dd2 [6]; [test solute] = 2 mM
  PfCRT-mediated [3H]CQ transport, cis-inhibition (% PfCRTDd2 control): 17 ± 0.7 % PfCRTDd2 control
PfCRT^Ecu1110 [7]; [test solute] = 0.5 mM
  Uptake of [3H]CQ (% PfCRTEcu1110 control), cis-inhibition: 54 ± 3.1 % PfCRTEcu1110 control
  PfCRT-mediated [3H]CQ transport, cis-inhibition (% PfCRTEcu1110 control): 49 ± 2.1 % PfCRTEcu1110 control
  [3H]CQ transport (% PfCRTEcu1110 control), cis-inhibition, PfCRTEcu1110: 15 ± 0.5 % PfCRTEcu1110 control
PfCRT^Ecu1110 [7]; [test solute] = 1 mM
  Uptake of [3H]CQ (% PfCRTEcu1110 control), cis-inhibition: 38 ± 3.1 % PfCRTEcu1110 control
  PfCRT-mediated [3H]CQ transport, cis-inhibition (% PfCRTEcu1110 control): 33 ± 1.5 % PfCRTEcu1110 control
  [3H]CQ transport (% PfCRTEcu1110 control), cis-inhibition, PfCRTEcu1110: 10 ± 0.1 % PfCRTEcu1110 control
PfCRT^Ecu1110 [7]; [test solute] = 2 mM
  Uptake of [3H]CQ (% PfCRTEcu1110 control), cis-inhibition: 27 ± 0.8 % PfCRTEcu1110 control
  PfCRT-mediated [3H]CQ transport, cis-inhibition (% PfCRTEcu1110 control): 24 ± 1.1 % PfCRTEcu1110 control
  [3H]CQ transport (% PfCRTEcu1110 control), cis-inhibition, PfCRTEcu1110: 8.0 ± 0.06 % PfCRTEcu1110 control
non-expressing oocytes [8]; [test solute] = 0.5 mM
  Uptake of [3H]CQ (% non-expressing oocyte control), cis-inhibition: 100 ± 4.3 % non-expressing oocyte control
non-expressing oocytes [8]; [test solute] = 1 mM
  Uptake of [3H]CQ (% non-expressing oocyte control), cis-inhibition: 100 ± 3.7 % non-expressing oocyte control
non-expressing oocytes [8]; [test solute] = 2 mM
  Uptake of [3H]CQ (% non-expressing oocyte control), cis-inhibition: 100 ± 4.6 % non-expressing oocyte control

— article PMC7413254 (Nature Communications, 2020)
